Data as given in the OligoGym collection.
“And” between values parts separate entries of the source, which are not always exact repeats. Equal entries are not always repeated. After the bases stand the sugars from the 5' end (letter, count) and the backbone: PS all phosphorothioate, else s phosphorothioate and o phosphodiester by linkage. Methylation of C is not given here. e = 2'-O-(2-methoxyethyl) (MOE); k = constrained ethyl (cEt); d = 2'-deoxy (DNA)

Molecular target: IRF4
Conditions: ASO

Row | Sequence | target mRNA inhibition (SK-MEL-28, 4 µM) [%] | further results
1 | TAGTATGAGAAACGGC (sugars k2 d9 e3 k2, PS) | – | target mRNA inhibition (MM.1R, 1 µM): 37%
2 | CCGGTAGAGTGAGATG (sugars k3 d10 k3, PS) | – | target mRNA inhibition (MM.1R, 1 µM): -3%
3 | CACCAGCCATCGGCAG (sugars k3 d10 k3, PS) | – | target mRNA inhibition (MM.1R, 1 µM): -19%
4 | TATAACGGTGTTTCAG (sugars k3 d10 k3, PS) | – | target mRNA inhibition (MM.1R, 1 µM): 36%
5 | GTCACTTACACCCAGA (sugars k3 d10 k3, PS) | 52 | –
6 | ATGAAAGTGTGTGCAA (sugars k3 d10 k3, PS) | 64 | –
7 | AAGGATGGGACCGCCC (sugars k3 d10 k3, PS) | 39 | –
8 | AGCTGACCATGTTACA (sugars k3 d10 k3, PS) | -19 | –
9 | CAAACCCTACTGGGTA (sugars k3 d10 k3, PS) | 32 | –
10 | CGGCAGTCTGCAAACA (sugars k3 d10 k3, PS) | – | target mRNA inhibition (MM.1R, 1 µM): 24%
11 | TGGTTGGCTGGTCTTT (sugars k3 d10 k3, PS) | – | target mRNA inhibition (MM.1R, 0.0625 µM): 6%; target mRNA inhibition (MM.1R, 0.25 µM): 40%; target mRNA inhibition (MM.1R, 1 µM): 88% and 69%; target mRNA inhibition (MM.1R, 4 µM): 89%
12 | GTAACTAACTCAAAAG (sugars k3 d10 k3, PS) | -1 | –
13 | TGTGATAGCTGAGCTG (sugars k2 d9 e3 k2, PS) | – | target mRNA inhibition (MM.1R, 1 µM): 12%
14 | GTATACTTAAGCAAGT (sugars k3 d10 k3, PS) | 42 | –
15 | GTTTACACTGGATCTG (sugars k3 d10 k3, PS) | 61 | –
16 | AGAATAAACACCCCTT (sugars k3 d10 k3, PS) | 74 | –
17 | GCGGAGCTTCCCGTTG (sugars k3 d10 k3, PS) | 33 | –
18 | GGCCATCCAGAGGACC (sugars k3 d10 k3, PS) | 25 | –
19 | ACTGCCGTGATCTGAG (sugars k3 d10 k3, PS) | – | target mRNA inhibition (MM.1R, 1 µM): 34% and 29%
20 | TTACCGATGCTTCAAG (sugars k3 d10 k3, PS) | – | target mRNA inhibition (MM.1R, 1 µM): 16% and 19%
21 | GCTCACTGCTCACTAA (sugars k3 d10 k3, PS) | 33 | –
22 | TACTGTTACCGATGCT (sugars kkdddddddddkekek, PS) | – | target mRNA inhibition (MM.1R, 1 µM): 9% and 27%
23 | TCTATAGTGTTCCAGG (sugars kkdddddddddekeke, PS) | – | target mRNA inhibition (MM.1R, 0.074 µM): 5%; target mRNA inhibition (MM.1R, 0.222 µM): 17%; target mRNA inhibition (MM.1R, 0.666 µM): 37%; target mRNA inhibition (MM.1R, 1 µM): 56% and 50%; target mRNA inhibition (MM.1R, 2 µM): 68%
24 | GGTACATGGCAGTGGA (sugars k3 d10 k3, PS) | 87 | –
25 | TTTACCTGGTATTGCT (sugars k3 d10 k3, PS) | 38 | –
26 | GAACTAATGTCCCCAG (sugars k3 d10 k3, PS) | 61 | –

Row | Sequence | target mRNA inhibition (SK-MEL-28, 4 µM) [%] | further results
27 | GAGCATCAACAAAGCC (sugars k3 d10 k3, PS) | 58 | –
28 | GAAGCATAGAACAGAT (sugars k3 d10 k3, PS) | 51 | –
29 | CTACAGGCACGGCTTC (sugars k3 d10 k3, PS) | 52 | –
30 | TACCCTGGATCACTCA (sugars k3 d10 k3, PS) | 65 | –
31 | TTTAAGGCCCTGTCAA (sugars k3 d10 k3, PS) | -17 | –
32 | AGAGGAATGGCGGATA (sugars k3 d10 k3, PS) | 42 | –
33 | ACGGAGGCGGCAGACG (sugars k3 d10 k3, PS) | – | target mRNA inhibition (MM.1R, 1 µM): -9%
34 | CATACCTACAAGCAGT (sugars k3 d10 k3, PS) | 43 | –
35 | GCATTTTATCATCCGA (sugars kkddddddddddkeke, PS) | – | target mRNA inhibition (MM.1R, 1 µM): 39%
36 | ACAGTGACTTGCATCC (sugars k2 d9 e3 k2, PS) | – | target mRNA inhibition (MM.1R, 1 µM): 27%
37 | CAGACCTTATGCTTGG (sugars k4 d8 k4, PS) | 26 | –
38 | CTACAAGGTCTGAGTT (sugars k3 d10 k3, PS) | 17 | –
39 | TCACGCAGTGCACCTG (sugars k3 d10 k3, PS) | 46 | –
40 | GCACAAGCATAAAAGG (sugars k3 d10 k3, PS) | 16 | –
41 | TTCCATTGGAGGAGGG (sugars k3 d10 k3, PS) | 28 | –
42 | TTTACACTGGATCTGA (sugars k3 d10 k3, PS) | 25 | –
43 | GAAGAGTTGGCGGTGG (sugars k3 d10 k3, PS) | 15 | –
44 | ACCCACACAAGTCTTA (sugars k3 d10 k3, PS) | -4 | –
45 | CCTGGGAGTAATAGTA (sugars k3 d10 k3, PS) | 53 | –
46 | AGTACAGTCCACTCCA (sugars k3 d10 k3, PS) | – | target mRNA inhibition (MM.1R, 1 µM): 7%
47 | CGCTGAACTGAAATCT (sugars k3 d10 k3, PS) | 37 | –
48 | TAAAGATGCCAGAGGG (sugars k3 d10 k3, PS) | 39 | –
49 | GAGTCACCTGGAATCT (sugars k3 d10 k3, PS) | 43 | –
50 | TCTAAAGTCCCATCGA (sugars k3 d10 k3, PS) | 31 | –
51 | TGCGAATGTGCCTTGT (sugars k3 d10 k3, PS) | 43 | –
52 | CTCACTGCTCACTAAG (sugars k3 d10 k3, PS) | 64 | –
